Values of other authors, collected in US5200396A, “Method of treating neurodegenerative disorders using epidermal growth factor” (Zambon Group S.p.A., priority 1990, dated 1993).

Test system: rats with lesion of the nigrostriatal pathway
Details: lesion of the nigrostriatal pathway model; Brain Research, 459, 398, (1988)

Question: For “NGF: growth factor acting as trophic factor towards some neuronal types”, which “efficacy in changing the rotational behaviour of the animal” value is on record?
Answer: The value was “did not show, in practice, any efficacy”.
